Measurements taken from patent US20260217712A1, “SOLID STATE FORMS OF MNK INHIBITORS” (4E Therapeutics, Inc., priority 2023, published 2026).
Where two headings read alike, the source gives them in different places.

Experiments:
Assay type in all cases: physicochemical
[1] = Static storage at 25° C./97% RH, XRPD and HPLC post storage; details: 8 days, listed as Lot B Sample 1
[2] = Thermodynamic solubility in simulated media and buffers; details: listed as Structure (I) Pattern 3
[3] = Static storage at 40° C./75% RH, XRPD and HPLC post storage; details: for stability to storage at 40° C./75% RH (in words): 40° C./75% RH (elevated temperature and humidity); for HPLC purity post storage at 40° C./75% RH: 7 days
Procedure, shortened: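 Solids isolated as counter-ion salts of the compound were stored statically at 40° C./75% RH and then re-examined by XRPD for solid-form changes. Chemical purity after storage was checked on an Agilent HP1100/Infinity II 1260 series HPLC system fitted with a diode array detector and running OpenLAB software.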

[4] = Variable temperature XRPD (VT-XRPD)
Source text: XRPD diffractograms were collected on a PANalytical Empyrean diffractometer using Cu Kα radiation (45 kV, 40 mA, λ=1.544398 Å) in reflection geometry. The instrument was fitted with an Anton Paar CHC plus+ stage fitted with graphite/Kapton windows and equipped with air cooling coupled or a low vacuum pump system using an Edwards RV3 pump. A programmable divergence slit (in automatic mode), with a 10 mm fixed incident beam mask, Ni filter and 0.04 rad Soller slits were used on the incident beam. A PIXcel3D detector, placed on the diffracted beam, was fitted with a programmable anti-scatter slit (in automatic mode) and 0.04 rad Soller slits.
For variable temperature (VT-XRPD) experiments the samples were prepared and analyzed in an Anton Paar chromed sample holder. The sample chamber was under ambient atmosphere and a heating/cooling rate of 10° C./min was used with a 2 min isothermal hold before the measurement started. The measurement parameters are as per the standard screening data collection method (detailed above). Measurements were taken at the following temperatures: 25, 80, 170, 250, and 25° C.

[5] = Gravimetric vapor sorption (GVS) and XRPD post-GVS; details: for GVS reversible water uptake 0-90% RH: 25° C.; for Post GVS XRPD form: after double cycle GVS
Method: Sorption isotherms were obtained using a SMS DVS Intrinsic moisture sorption analyzer, controlled by DVS Intrinsic Control software. The sample temperature was maintained at 25° C. by the instrument controls. The humidity was controlled by mixing streams of dry and wet nitrogen, with a total flow rate of 200 mL/min. The relative humidity was measured by a calibrated Rotronic probe (dynamic range of 1.0-100% RH), located near the sample. The weight change, (mass relaxation) of the sample as a function of % RH was constantly monitored by a microbalance (accuracy±0.005 mg).
(§1) Typically, 5-30 mg of sample was placed in a tared mesh stainless steel basket under ambient conditions. The sample was loaded and unloaded at 40% RH and 25° C. (typical room conditions). A moisture sorption isotherm was performed as outlined below (2 scans per complete cycle). The standard isotherm was performed at 25° C. at 10% RH intervals over a 0-90% RH range. Typically, a double cycle (4 scans) was carried out. Data analysis was carried out within Microsoft Excel using the DVS Analysis Suite.
Sorption isotherms were obtained using a Hiden IGASorp moisture sorption analyser, controlled by Isochema HISorp software. The sample temperature was maintained at 25° C. by a Grant LT ecocool 150 re-circulating water bath. The humidity was controlled by mixing streams of dry and wet nitrogen, with a total flow rate of 250 ml·min-1. The relative humidity was measured by a calibrated Vaisala RH probe (dynamic range of 0-95% RH), located near the sample. The weight change, (mass relaxation) of the sample as a function of % RH was constantly monitored by the microbalance (accuracy±0.001 mg).
as §1, with “Typically, 20-30” for “Typically, 5-30”, “scans giving 1” for “scans per”, “within the Isochema HISorp 2019 software and exported into” for “within”, “Excel to present accordingly.” for “Excel using the DVS Analysis Suite.”

HPLC purity after storage at 25° C./97% RH (8 days) [1]: 98.5%
XRPD after storage at 25° C./97% RH (8 days) [1]: Unchanged by XRPD
solubility in simulated fluids and buffers (in words) [2]: poor
stability to storage at 40° C./75% RH (in words) [3]: good stability to storage
stability to storage at 40° C./75% RH (in words) ([3]; listed as Lot B): remained unchanged
HPLC purity post storage at 40° C./75% RH ([3]; 40° C./75% RH, listed as 9-5): 98.5%
HPLC purity post storage at 40° C./75% RH ([3]; 40° C./75% RH, listed as Lot B Sample 1): 98.8%
change of chemical purity on storage at 40° C./75% RH (in words) ([3]; 40° C./75% RH, listed as 9-5): small decrease in chemical purity
VT-XRPD form at 25-80° C. ([4]; 25-80° C.): 25-80° C.: Pattern 3
VT-XRPD form at 175° C. [4]: Pattern 10 was again observed
VT-XRPD form at 175° C. ([4]; listed as Lot B Sample 1): 175° C.: Pattern 10
VT-XRPD form at 250° C. ([4]; 250° C., listed as Lot B Sample 1): 250° C.: Patterns 10 and 11
VT-XRPD form on cooling to 25° C. ([4]; cooling to 25° C.): Cooling to 25° C.: Patterns 11 and 3
hygroscopicity (in words) [5]: hygroscopic
GVS reversible water uptake 0-90% RH [5]: 8.4 wt %
GVS reversible water uptake 0-90% RH ([5]; listed as Lot B Sample 1): 8.4 wt % reversible water uptake
GVS uptake 80-90% RH ([5]; 80-90% RH): 6.3 wt % uptake 80-90% RH
Post GVS XRPD form [5]: the solid form was retained
Post GVS XRPD form ([5]; listed as Lot B Sample 1): Post GVS XRPD: No change in form
hygroscopicity (in words) ([5]; listed as Lot B): hygroscopic
hygroscopicity (in words) ([5]; listed as Lot B Sample 1): Material is hygroscopic
SMILES: Cc1cc(Nc2cc(N)ncn2)c(=O)n2c1C(=O)NC21CCC2(CC2)CC1 [Pattern 3]
